Among the data in ChEMBL document CHEMBL5729174, “Substituted benzofuran, benzopyrrole, benzothiophene, and structurally related complement inhibitors” (2022) are IC50 values, retold here.

The assay deals with Complement factor D (Homo sapiens, UniProt P00746). Nature of the assay: Factor D Esterolytic Assay: An established esterolytic assay for the measurement of Factor D activity and inhibition of Factor D activity was used (Kam, C. M.; McRae, B. J.; Harper, J. W.; Niemann, M. A.; Volanakis, J. E.; Powers, J. C. Human complement proteins D, C2, and B Active site mapping with peptide thioester substrates. J Biol. Chem. 1987, 262, 3444-3451). For this assay Z-Lys-SBzl, 1.29 mM (Kim, S.; Narayana, S. V. L; Volanakis, J. E. Mutational analysis of the substrate binding site of human complement Factor D. Biochemistry. 1994, 33, 14393-14399.) was used as the substrate for Factor D ([…]). Hydrolysis of this compound by Factor D liberated a free sulfhydryl group which is then reacted with 5,5′-dithiobis(2nitrobenzoic acid) producing an intense yellow color (Habeeb, A. F. S. A. Reaction of protein sulfhydryl groups with Ellman's Reagent. Methods in Enzymol. 1976, 25, 457-464). The assays were performed in 96 well microtiter plates and rates of hydrolysis were monitored at 405 nm on a Biotek Synergy H1 plate reader. Hydrolysis rates were reported as change in mOD/min. The assay was conducted in 100 mM HEPES, 500 mM NaCl, pH 7.5 containing 10% DMSO in a final volume of 50 μL per well.
Chain of Complement factor D (P00746 whole entry): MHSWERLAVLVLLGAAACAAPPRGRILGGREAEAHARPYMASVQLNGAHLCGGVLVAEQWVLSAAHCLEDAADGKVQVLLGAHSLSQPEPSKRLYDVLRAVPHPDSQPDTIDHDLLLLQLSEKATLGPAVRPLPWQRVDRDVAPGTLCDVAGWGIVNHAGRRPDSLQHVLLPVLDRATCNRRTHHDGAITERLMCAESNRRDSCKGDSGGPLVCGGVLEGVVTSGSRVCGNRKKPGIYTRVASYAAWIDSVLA

For `CS(=O)(=O)n1ccc2c(-c3ccnc(CN)c3F)cc(COc3ccccc3CC(=O)O)cc21`, the IC50 is less than 1000 nM. On to `NCc1nccc(-c2cc(COc3ccccc3CC(=O)O)cc3c2ccn3S(=O)(=O)C2CC2)c1F`, for which the IC50 was less than 1000 nM. In the case of `NCc1cccc(-c2cc(COc3ccc(F)cc3CC(=O)O)cc3ccoc23)c1F` it was less than 1000 nM; in that of `NCc1cccc(-c2cc(COc3ccccc3CC(=O)O)cc3cc[nH]c23)c1`, less than 1000 nM.
